These results are taken from US9266908B2, “Inhibitors of arginase and their therapeutic applications” (MARS, INCORPORATED, priority 2011, dated 2016).

One experiment deals with bacterial arginase. Conditions: cited from earlier work.
In experiment [1] the test system is experimental autoimmune encephalomyelitis (EAE). The note with it: animals undergoing EAE; cited from earlier work.
The target of another experiment is T1, human-Arginase-1 (Homo sapiens, UniProt P05089).
T1 construct: expressed in transfected cells; host or cells: CHOK cells
T1 sequence (P05089 1-322): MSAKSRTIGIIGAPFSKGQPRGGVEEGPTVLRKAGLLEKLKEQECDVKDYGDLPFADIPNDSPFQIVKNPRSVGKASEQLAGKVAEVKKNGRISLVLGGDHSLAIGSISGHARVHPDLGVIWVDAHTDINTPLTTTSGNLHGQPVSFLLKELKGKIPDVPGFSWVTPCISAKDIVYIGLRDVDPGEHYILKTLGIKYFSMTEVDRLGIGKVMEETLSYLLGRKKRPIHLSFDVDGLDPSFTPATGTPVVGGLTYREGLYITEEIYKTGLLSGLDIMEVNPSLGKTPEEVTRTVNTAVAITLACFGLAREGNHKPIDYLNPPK
Put plainly: Urea production in CHOK cells stably transfected with human-Arginase-1. In kind it is cell-based. The note with it: IC50 class, 5 mM arginine, 24 hours, read-out: CHOK Cell. On the procedure:
Table 3 also provides CHOK cell based IC50 values for illustrative arginase inhibitors. IC50 values were determined by measuring the production of urea in CHOK cells stably transfected with human-Arginase-1.
Briefly, CHOK cells were stably transfected with human-arginase-1. To determiner the IC50 values for compounds in accordance with the present invention, parental CHOK cells and arginase-1 stably transfected cells were plated in a 96 well plate. Cells were plated using 200 μl of complete growth medium and incubated overnight at 37° C.
Media from each of the wells containing cells was first removed and growth media supplemented with arginine at a concentration of 5 mM was added to each well. The test compounds were dissolved in PBS buffer to the desired concentration and added to appropriate wells. The plate was then incubated at 37° C. for 24 hours. After 24 hours the plates were spun down at 3000 RPM for 5 min and 50 μl of the media were transferred to a new plate.
An aqueous solution of o-phthaldehyde, Brij, sulfuric acid, primaquine diphosphate and boric acid was added to each well and the plate was incubated for 10-15 minutes. The urea concentration in each well was determined by measuring the optical density at 520-530 nanometers using a standard curve. The IC50 values were calculated by measuring urea production at various concentrations of the inventive arginase inhibitors after subtracting the value related to the concentration of urea in control wells.

Another experiment deals with T2, human arginase I (ARG I) (Homo sapiens, UniProt P05089).
T2 sequence (P05089 1-322): T1 sequence (P05089 1-322)
Briefly: Inhibition of arginase I, spectrophotometric urea assay at 530 nm.

Another experiment concerns the target T3, arginase II (ARG II) (Homo sapiens, UniProt P78540).
T3 sequence (P78540 23-354): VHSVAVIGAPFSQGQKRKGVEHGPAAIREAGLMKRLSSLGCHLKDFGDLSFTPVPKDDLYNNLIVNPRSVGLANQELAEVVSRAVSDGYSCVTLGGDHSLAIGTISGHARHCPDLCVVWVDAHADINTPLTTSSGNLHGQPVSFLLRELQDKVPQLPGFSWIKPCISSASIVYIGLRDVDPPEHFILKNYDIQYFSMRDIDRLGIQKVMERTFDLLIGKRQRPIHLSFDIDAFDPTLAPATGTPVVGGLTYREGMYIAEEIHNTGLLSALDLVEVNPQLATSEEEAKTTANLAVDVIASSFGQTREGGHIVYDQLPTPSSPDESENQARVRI
Put plainly: Inhibition of arginase II, spectrophotometric urea assay at 530 nm.

Experiment [2] deals with spontaneously hypertensive animals. The note with it: cited from earlier work.
The next experiment deals with murine chronic model. Conditions: cited from earlier work.

The structures appear in SMILES notation.

Method for arginase II (ARG II): (§1) Inhibition of arginase I (ARG I) and arginase II (ARG II) by the inventive compounds is followed spectrophotometrically at 530 nm. […] Solutions of arginase I and II are prepared in 100 mM sodium phosphate buffer, pH 7.4 containing 1 mg/ml of OVA to give an arginase stock solution at a final concentration of 100 ng/ml.
(§2) To each well of a 96-well microtiter plate is add 40 μl of enzyme, 10 μl of an inventive compound and 10 μl of enzyme substrate (L-arginine+ manganese sulfate). For wells that are used as positive controls, only the enzyme and its substrate are added, while wells used as negative controls contain only manganese sulfate.
(§3) After incubating the microtiter plate at 37° C. for 60 minutes, 150 μl of a urea reagent obtained by combining equal proportions (1:1) of reagents A and B is added to each well of the microtiter plate to stop the reaction. The urea reagent is made just before use by combining Reagent A (10 mM o-phthaldialdehyde, and 0.4% polyoxyethylene (23) lauryl ether (w/v) in 1.8 M sulfuric acid) with Reagent B (1.3 mM primaquine diphosphate, 0.4% polyoxyethylene (23) lauryl ether (w/v), 130 mM boric acid in 3.6 M sulfuric acid). After quenching the reaction mixture, the microtiter plate is allowed to stand for an additional 10 minutes at room temperature to allow color development. […] The normalized OD is then used to generate a dose-response curve by plotting the normalized OD values against log [concentration] and using regression analysis to compute the IC50 values.
Method for human arginase I (ARG I): as §1, §2, §3

For `NC(=NCCC[C@H](N)C(=O)O)NO` [NOHA], in the experiment with bacterial arginase, the “CD3 expression on T-cells” value is on record as “reestablished” and the “production of NO by macrophages” value is reported as “enhanced”.
With `NC(CCCCB(O)O)C(=O)O` (stereo not drawn) [ABH, amino-6-boronohexanoic acid], the “form of EAE developed versus control animals” value in experiment [1] is given as “much milder form of EAE”.
In the case of `NC(CCCCB(O)O)(C(=O)O)[C@H]1C[C@@H](NCc2ccc(-c3ccc(F)cc3F)c(F)c2)C1` (mixture of isomers) [Example 55, (S)-2-amino-6-borono-2-((1s,3R)-3-((2,2′,4′-trifluorobiphenyl-4-yl)methylamino)cyclobutyl)hexanoic acid], the results for the IC50 at human-Arginase-1, against human arginase I (ARG I) and against arginase II (ARG II) were 26000 to 100000 nM, 26 to 100 nM and 26 to 100 nM, respectively.
Consider `N=C(NO)NCC[C@H](N)C(=O)O` [nor-NOHA, N^ω-hydroxy-nor-L-arginine], for which, in experiment [2], the blood pressure entry is given as “lowered”; the “vascular response of resistance vessels to blood flow and pressure” value is “improved”.
`NC(CCCCB(O)O)(C(=O)O)[C@H]1C[C@@H](NCc2ccc(Oc3ccc(Cl)cc3)cc2)C1` (stereo partly drawn) [Example 21, (S)-2-amino-6-borono-2-((1s,3R)-3-(4-(4-chlorophenoxy)benzylamino)cyclobutyl)hexanoic acid]: the IC50 at human-Arginase-1 fell in the range of 26000 to 100000 nM; against human arginase I (ARG I), 0.1 to 25 nM; against arginase II (ARG II), 0.1 to 25 nM.
Regarding `NC(CCCCB(O)O)(C(=O)O)[C@H]1C[C@@H](NCc2ccc(C3CCCCC3)cc2)C1` (stereo partly drawn) [Example 26, (S)-2-amino-6-borono-2-((1s,3R)-3-(4-cyclohexylbenzylamino)cyclobutyl)hexanoic acid], the IC50 lay in the range of 26000 to 100000 nM on human-Arginase-1, 0.1 to 25 nM on human arginase I (ARG I) and 26 to 100 nM on arginase II (ARG II).
The like results for `NC(CCCCB(O)O)(C(=O)O)[C@H]1C[C@@H](NCc2ccc(F)c3ccccc23)C1` (stereo partly drawn) [Example 10, (S)-2-amino-6-borono-2-((1s,3R)-3-((4-fluoronaphthalen-1-yl)methylamino)cyclobutyl)hexanoic acid] were, in that order, 1000 to 25000 nM, 0.1 to 25 nM and 0.1 to 25 nM.
Regarding `N[C@@H](CSCCB(O)O)C(=O)O` [S-(2-boronoethyl)-L-cysteine], the “methacholine induced responsiveness of the central airways” value with murine chronic model is given as “attenuated”.
For `NC(CCCCB(O)O)(C(=O)O)[C@H]1C[C@@H](NCc2ccc(-c3ccc(Cl)cc3)c(F)c2)C1` (mixture of isomers) [Example 51, (S)-2-amino-6-borono-2-((1s,3R)-3-((4′-chloro-2-fluorobiphenyl-4-yl)methylamino)cyclobutyl)hexanoic acid], the IC50 at human-Arginase-1 fell in the range of 26000 to 100000 nM; against human arginase I (ARG I) it was 26 to 100 nM; at arginase II (ARG II) it was 0.1 to 25 nM.
The matching figures for `CC(C)(C)c1ccc(CN[C@H]2C[C@@H](C(N)(CCCCB(O)O)C(=O)O)C2)cc1` (stereo partly drawn) [Example 6, (S)-2-amino-6-borono-2-((1s,3R)-3-(4-tert-butylbenzylamino)cyclobutyl)hexanoic acid]: 26000 to 100000 nM, 26 to 100 nM and 26 to 100 nM.
